Values after ≈ are worked out from the molar mass of the structure shown.
Legend:
Assay in all cases: ≥ marks a high value that may be exact or a test limit, other limits are often not marked, values filed in µg/mL are converted to µM
Escherichia coli BL21 = tested on: Escherichia coli BL21
[1] = tested on: Pseudomonas aeruginosa PAO1
[2] = tested on: Streptococcus pyogenes M1T1 5448
Salmonella sp. = tested on: Salmonella sp.
Micrococcus luteus = tested on: Micrococcus luteus
[3] = tested on: Escherichia coli ATCC 25922
[4] = tested on: Corynebacterium glutamicum ATCC 13032
[5] = tested on: Staphylococcus aureus ATCC 9144
Aureobasidium pullulans = tested on: Aureobasidium pullulans
Bacillus megaterium = tested on: Bacillus megaterium
[6] = tested on: Bacillus subtilis ATCC 23857
[7] = tested on: Candida albicans ATCC 10231
[8] = tested on: Pseudomonas aeruginosa ATCC 27853

## CC[C@H](C)[C@H](NC(=O)[C@H](CCCCN)NC(=O)[C@H](CCCCN)NC(=O)[C@H](Cc1c[nH]c2ccccc12)NC(=O)[C@H](CCC(=O)O)NC(=O)[C@H](CC(N)=O)NC(=O)[C@@H](NC(=O)[C@@H](NC(=O)[C@H](CCCCN)NC(=O)[C@H](CCCCN)NC(=O)[C@H](CC(C)C)NC(=O)[C@H](CCCN=C(N)N)NC(=O)[C@H](CC(N)=O)NC(=O)[C@H](Cc1ccccc1)NC(=O)[C@@H](NC(=O)[C@H](CCCCN)NC(=O)[C@H](CCC(=O)O)NC(=O)[C@@H](NC(=O)CNC(=O)[C@H](C)N)[C@@H](C)O)[C@@H](C)CC)[C@@H](C)O)[C@@H](C)CC)C(=O)N[C@@H](C)C(=O)N[C@@H](CCCCN)C(=O)N[C@@H](CCCN=C(N)N)C(=O)N[C@@H](C)C(=O)N[C@@H](Cc1c[nH]c2ccccc12)C(=O)O [AGTEKIFNRLKKTINEWKKIAKRAW]
Escherichia coli BL21
  MIC: 4 µM (≈ 12.1 µg/mL)
[1]
  MIC: 16 µM (≈ 48.5 µg/mL)
[2]
  MIC: 8 µM (≈ 24.2 µg/mL)

## CC[C@H](C)[C@H](NC(=O)[C@H](CCCCN)NC(=O)[C@H](CCCCN)NC(=O)CNC(=O)[C@H](CCC(=O)O)NC(=O)[C@H](CCC(N)=O)NC(=O)[C@@H](NC(=O)[C@@H](NC(=O)[C@H](CCCCN)NC(=O)[C@H](CCCCN)NC(=O)[C@H](CC(C)C)NC(=O)[C@H](CCCN=C(N)N)NC(=O)[C@H](CCC(N)=O)NC(=O)[C@H](Cc1ccccc1)NC(=O)[C@@H](NC(=O)[C@H](CCCCN)NC(=O)[C@H](CCC(=O)O)NC(=O)[C@@H](NC(=O)CNC(=O)[C@H](C)N)[C@@H](C)O)[C@@H](C)CC)[C@@H](C)O)[C@@H](C)CC)C(=O)N[C@@H](C)C(=O)N[C@@H](CCCCN)C(=O)N[C@@H](CCCN=C(N)N)C(=O)N[C@@H](Cc1c[nH]c2ccccc12)C(=O)N[C@@H](Cc1c[nH]c2ccccc12)C(=O)O [AGTEKIFQRLKKTIQEGKKIAKRWW]
Escherichia coli BL21
  MIC: 0.25 µM (≈ 0.761 µg/mL)
[1]
  MIC: 16 µM (≈ 48.7 µg/mL)
[2]
  MIC: 0.125 µM (≈ 0.381 µg/mL)

## CC[C@H](C)[C@H](NC(=O)[C@H](C)NC(=O)CNC(=O)[C@@H](NC(=O)[C@@H](N)Cc1ccccc1)[C@@H](C)CC)C(=O)N[C@@H](C)C(=O)N[C@@H](CCCN=C(N)N)C(=O)N[C@@H](CC(C)C)C(=O)N[C@@H](CC(C)C)C(=O)N[C@@H](CO)C(=O)N[C@@H](CCCCN)C(=O)N[C@H](C(=O)N[C@@H](Cc1ccccc1)C(=O)O)[C@@H](C)CC [FIGAIARLLSKIF]
Salmonella sp.
  MIC: ≥ 90.5 µM

## C[C@H](NC(=O)[C@H](CCCCN)NC(=O)[C@H](Cc1c[nH]c2ccccc12)NC(=O)CNC(=O)[C@H](Cc1c[nH]c2ccccc12)NC(=O)[C@@H]1CCCN1C(=O)[C@H](CCCCN)NC(=O)[C@H](CCCCN)NC(=O)CN)C(=O)N[C@@H](CCCCN)C(N)=O [GKKPWGWKAK]
Micrococcus luteus
  MIC: ≥ 211 µM
[3]
  MIC: > 211 µM
[4]
  MIC: 13.2 µM (≈ 15.6 µg/mL)
[5]
  MIC: ≥ 211 µM
Aureobasidium pullulans
  MIC: ≥ 52.7 µM
Bacillus megaterium
  MIC: 3.29 µM (≈ 3.9 µg/mL)
[6]
  MIC: ≥ 211 µM
[7]
  MIC: 105 µM (≈ 125 µg/mL)
[8]
  MIC: > 211 µM
